Columns and labels:
total ATXN3 protein = experiment: ATXN3 Total Protein Assay (Mesoscale Discovery, SK-N-MC cells); type: cell-based, Human; details: incubation for 48 hours, MSD assay
Summary of the method: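 Human SK-N-MC neuroblastoma cells treated with compound at 30 μM to 0.6 nM for 48 h, then lysed with protease inhibitors. Total ATXN3 quantified by MSD sandwich immunoassay (mouse capture, rabbit detect antibodies, anti-rabbit MSD-ST secondary) against recombinant ATXN3 standards.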

ATXN3-HiBiT protein = experiment: ATXN3 Total Protein Assay (Kelly-ATXN3-HiBiT luminescence); type: cell-based; details: Kelly-ATXN3-HiBiT cells, 48 h after addition of compound
Summary of the method: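 Kelly cells with homozygous C-terminal HiBiT knock-in on endogenous ATXN3, 2000 per well, dosed 24 h after seeding. HiBiT lytic luminescence read 48 h after compound; sister plate read with CellTiter-Glo for viability; fold change vs DMSO.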

[1] = system: ATXN3 transcripts containing exon 4; experiment: ATXN3 Quantitative Splicing Assay (qPCR, E4E5 primers/probe); type: cell-based; details: Homo sapiens, SK-N-MC cells, compounds for 24 h
Summary of the method: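 SK-N-MC human neuroblastoma cells treated 24 h with compound from 30 μM to 0.6 nM, 24 h after plating. Lysate cDNA was run in TaqMan qPCR, with primers/probe E4E5 detecting exon 4-containing ATXN3 transcripts and E8E9 measuring total ATXN3.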

Compound	IC50 (total ATXN3 protein) [µM]	EC50 (ATXN3-HiBiT protein) [µM]	IC50 [1] [µM]
C[C@H](N)Cc1oc2c(NCc3cccs3)cc(Cl)nc2c1-c1ccsc1 [Compound 260, 2-[(S)-2-aminopropyl]-5-chloro-7-thenylamino-3-(3-thienyl)-1-oxa-4-azaindene]	0.501 to 5	10 to 40	10 to 40
C[C@H](N)Cc1oc2c(NCc3cccs3)cc(Cl)nc2c1-c1ncco1 [Compound 262, 2-[(S)-2-aminopropyl]-5-chloro-3-(1,3-oxazol-2-yl)-7-thenylamino-1-oxa-4-azaindene]	0.101 to 0.5	0.101 to 0.5	0.101 to 0.5
C[C@H](N)Cc1oc2c(NCc3cccs3)cc(Cl)nc2c1-c1cscn1 [Compound 263, 2-[(S)-2-aminopropyl]-5-chloro-7-thenylamino-3-(1,3-thiazol-4-yl)-1-oxa-4-azaindene]	0.501 to 5	0.501 to 5	0.501 to 5
C[C@H](N)Cc1oc2c(NCc3cccs3)c(F)c(Cl)nc2c1Br [Compound 275, 2-[(S)-2-aminopropyl]-3-bromo-5-chloro-6-fluoro-7-thenylamino-1-oxa-4-azaindene]	0.501 to 5	0.501 to 5	0.501 to 5
C#Cc1c(C[C@H](C)N)oc2c(NCc3cccs3)c(F)c(Cl)nc12 [Compound 276, 2-[(S)-2-aminopropyl]-5-chloro-3-ethynyl-6-fluoro-7-thenylamino-1-oxa-4-azaindene]	0.501 to 5	0.501 to 5	0.501 to 5
C[C@H](F)[C@H](N)Cc1oc2c(NCc3cccs3)c(F)c(Cl)nc2c1Br [Compound 277, 2-[(2R,3S)-2-amino-3-fluorobutyl]-3-bromo-5-chloro-6-fluoro-7-thenylamino-1-oxa-4-azaindene]	0.501 to 5	0.501 to 5	0.501 to 5
[2H][C@](N)(COC)Cc1oc2c(NCc3cccs3)cc(Cl)nc2c1Br [Compound 285, 2-[(R)-2-amino-3-methoxy(2-^2H)propyl]-3-bromo-5-chloro-7-thenylamino-1-oxa-4-azaindene]	1e-05 to 0.1	1e-05 to 0.1	0.101 to 0.5
C[C@H](N)Cc1oc2c(NCc3cccs3)cc(C(N)=O)nc2c1Br [Compound 288, 2-[(S)-2-aminopropyl]-3-bromo-7-thenylamino-1-oxa-4-aza-5-indenecarboxamide]	10 to 40	10 to 40	10 to 40
CC#C[C@@H](Cc1oc2c(NCc3cccs3)cc(Cl)nc2c1Br)NC [Compound 295, 3-bromo-5-chloro-2-[(2R)-2-(methylamino)pent-3-yn-1-yl]-N-(thiophen-2-ylmethyl)furo[3,2-b]pyridin-7-amine]	0.501 to 5	0.101 to 0.5	0.501 to 5
[2H]C([2H])(c1oc2c(NCc3cccs3)cc(Cl)nc2c1Br)[C@@H](N)COC [Compound 304, 2-[(R)-2-amino-3-methoxy(1,1- ^2H2)propyl]-3-bromo-5-chloro-7-thenylamino-1-oxa-4-azaindene]	1e-05 to 0.1	1e-05 to 0.1	1e-05 to 0.1
C[C@H](N)Cc1oc2c(NCc3cccs3)cc(Cl)nc2c1-c1cnco1 [Compound 310]	0.101 to 0.5	0.101 to 0.5	0.101 to 0.5
C[C@H](N)Cc1oc2c(NCc3cccs3)cc(Cl)nc2c1-c1ccco1 [Compound 311, 2-[(S)-2-aminopropyl]-5-chloro-3-(2-furyl)-7-thenylamino-1-oxa-4-azaindene]	5 to 10	0.501 to 5	0.501 to 5
C[C@H](F)[C@H](N)Cc1oc2c(NCc3cccs3)cc(Cl)nc2c1-c1ncco1 [Compound 312, 2-[(2R,3S)-2-amino-3-fluorobutyl]-5-chloro-3-(1,3-oxazol-2-yl)-7-thenylamino-1-oxa-4-azaindene]	0.101 to 0.5	1e-05 to 0.1	0.101 to 0.5
C[C@H](N)Cc1oc2c(NCc3cccs3)cc(Cl)nc2c1-c1ncc[nH]1 [Compound 313, 2-[(2S)-2-aminopropyl]-5-chloro-3-(1H-imidazol-2-yl)-N-(thiophen-2-ylmethyl)furo[3,2-b]pyridin-7-amine]	5 to 10	10 to 40	10 to 40
C[C@H](N)Cc1oc2c(NCc3cccs3)cc(Cl)nc2c1-c1nccn1C [Compound 314, 2-[(S)-2-aminopropyl]-5-chloro-3-(1-methyl-2-imidazolyl)-7-thenylamino-1-oxa-4-azaindene]	10 to 40	10 to 40	10 to 40
C[C@H](N)Cc1oc2c(NCc3cccs3)cc(Cl)nc2c1-c1ccnn1C [Compound 316, 2-[(S)-2-aminopropyl]-5-chloro-3-(1-methyl-5-pyrazolyl)-7-thenylamino-1-oxa-4-azaindene]	10 to 40	10 to 40	10 to 40
C[C@H](N)Cc1oc2c(NCc3cccs3)cc(Cl)nc2c1-c1ccn(C)n1 [Compound 317, 2-[(S)-2-aminopropyl]-5-chloro-3-(1-methyl-3-pyrazolyl)-7-thenylamino-1-oxa-4-azaindene]	10 to 40	0.501 to 5	10 to 40
C[C@H](N)Cc1oc2c(NCc3cccs3)cc(Cl)nc2c1-c1ccn[nH]1 [Compound 319, 2-[(S)-2-aminopropyl]-5-chloro-3-(5-pyrazolyl)-7-thenylamino-1-oxa-4-azaindene]	0.501 to 5	0.501 to 5	0.501 to 5
Cc1coc(-c2c(C[C@H](C)N)oc3c(NCc4cccs4)cc(Cl)nc23)n1 [Compound 321, 2-[(S)-2-aminopropyl]-5-chloro-3-(4-methyl-1,3-oxazol-2-yl)-7-thenylamino-1-oxa-4-azaindene]	0.501 to 5	0.501 to 5	0.501 to 5
Cc1cnc(-c2c(C[C@H](C)N)oc3c(NCc4cccs4)cc(Cl)nc23)o1 [Compound 322, 2-[(S)-2-aminopropyl]-5-chloro-3-(5-methyl-1,3-oxazol-2-yl)-7-thenylamino-1-oxa-4-azaindene]	0.501 to 5	0.501 to 5	0.501 to 5
C[C@H](N)Cc1oc2c(NCc3cccs3)cc(Cl)nc2c1-c1ccoc1 [Compound 328, 2-[(S)-2-aminopropyl]-5-chloro-3-(3-furyl)-7-thenylamino-1-oxa-4-azaindene]	10 to 40	10 to 40	10 to 40
C[C@H](F)[C@H](N)Cc1oc2c(NCc3cccs3)cc(Cl)nc2c1-c1ccco1 [Compound 331, 2-[(2R,3S)-2-amino-3-fluorobutyl]-5-chloro-3-(2-furyl)-7-thenylamino-1-oxa-4-azaindene]	0.501 to 5	0.501 to 5	0.501 to 5
C[C@H](F)[C@H](N)Cc1oc2c(NCc3cccs3)cc(Cl)nc2c1-c1ccoc1 [Compound 332, 2-[(2R,3S)-2-amino-3-fluorobutyl]-5-chloro-3-(3-furyl)-7-thenylamino-1-oxa-4-azaindene]	0.501 to 5	0.501 to 5	0.501 to 5
C[C@H](F)[C@H](N)Cc1oc2c(NCc3cccs3)cc(Cl)nc2c1-c1ccn(C)n1 [Compound 333, 2-[(2R,3S)-2-amino-3-fluorobutyl]-5-chloro-3-(1-methyl-3-pyrazolyl)-7-thenylamino-1-oxa-4-azaindene]	0.501 to 5	5 to 10	0.501 to 5

— patent US20260001889A1, “COMPOSITIONS USEFUL FOR MODULATING SPLICING” (Skyhawk Therapeutics, Inc., priority 2022, published 2026)
